Results: patent publication US20050209278A1, “Piperidinyl- and piperazinyl-sulfonylmethyl hydroxamic acids and their use as protease inhibitors” (priority 2002, published 2005)

Target: T1, MMP-9 (Homo sapiens, UniProt P14780)
T1 construct: made in house; host or cells: MMP-9-transfected HT1080 cells (spent media)
Test: In vitro MMP inhibition, Ki determination (fluorogenic substrate II)
Format: biochemical
Conditions: value not in parenthesis
Summary of the method: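 HT1080-derived MMP-9, activated with APMA, trypsin or MMP-3, incubated 1 hr at room temperature with inhibitor and 4 μM fluorogenic substrate II (at or below Km) in pH 7.5 Tris/NaCl/CaCl2 buffer; ex 330/em 420 nm. Ki from Morrison-equation regression, without substrate correction.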

T1 sequence (P14780 107-707 limits assumed): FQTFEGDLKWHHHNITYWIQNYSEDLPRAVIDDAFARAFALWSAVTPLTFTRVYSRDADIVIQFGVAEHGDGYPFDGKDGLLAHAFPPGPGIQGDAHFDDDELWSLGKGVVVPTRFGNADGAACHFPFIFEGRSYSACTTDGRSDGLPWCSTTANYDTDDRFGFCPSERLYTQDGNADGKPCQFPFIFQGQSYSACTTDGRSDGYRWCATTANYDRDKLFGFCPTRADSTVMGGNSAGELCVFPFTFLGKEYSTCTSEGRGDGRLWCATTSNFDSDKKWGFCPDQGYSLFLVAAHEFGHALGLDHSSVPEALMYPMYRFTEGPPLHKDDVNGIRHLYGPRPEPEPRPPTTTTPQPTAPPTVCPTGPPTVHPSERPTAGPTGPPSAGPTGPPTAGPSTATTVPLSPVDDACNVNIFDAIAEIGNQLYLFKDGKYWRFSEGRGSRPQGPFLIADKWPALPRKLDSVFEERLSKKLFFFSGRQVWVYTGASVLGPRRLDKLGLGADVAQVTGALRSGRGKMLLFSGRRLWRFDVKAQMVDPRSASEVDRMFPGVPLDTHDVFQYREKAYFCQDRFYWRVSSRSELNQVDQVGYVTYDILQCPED

Row | SMILES | Ki
1 | O=C(NO)C1(S(=O)(=O)N2CCN(c3ccc(OCCN4CCCC4)cc3)CC2)CCOCC1 [Example 162] | 402 nM
2 | O=C(NO)C1(S(=O)(=O)N2CCN(c3nncs3)CC2)CCOCC1 [Example 215] | > 10000 nM
3 | CCCCOc1ccc(N2CCN(S(=O)(=O)C3(C(=O)NO)CCN(C(=O)NC(C)(C)C)CC3)CC2)cc1 [Example 240] | 1.03 nM
4 | CCCCOc1ccc(N2CCN(S(=O)(=O)C3(C(=O)NO)CCN(c4ccc5c(c4)OCO5)CC3)CC2)cc1 [Example 221] | 14.6 nM
5 | CCCCOc1ccc(N2CCN(S(=O)(=O)C3(C(=O)NO)CCN(C(=O)c4ccco4)CC3)CC2)cc1 [Example 156] | 1.2 nM
6 | O=C(NO)C1(S(=O)(=O)N2CCN(c3ccc(SC(F)(F)F)cc3)CC2)CCOCC1 [Example 170] | 17.1 nM
7 | O=C(NO)C1(S(=O)(=O)N2CCN(c3ccccn3)CC2)CCOCC1 [Example 169] | 4.99 nM
8 | O=C(NO)C1(S(=O)(=O)N2CCN(c3cnc(CCC(F)(F)C(F)(F)F)cn3)CC2)CCOCC1 [Example 210] | 141 nM
9 | CCCCCc1ccc(N2CCN(S(=O)(=O)C3(C(=O)NO)CCN(S(C)(=O)=O)CC3)CC2)cc1 [Example 237] | 2.79 nM
10 | O=C(NO)C1(S(=O)(=O)N2CCN(c3cnc(CCC(F)(F)F)cn3)CC2)CCOCC1 [Example 218] | 2.29 nM
11 | CCCCOc1ccc(N2CCN(S(=O)(=O)C3(C(=O)NO)CCN(CCOC)CC3)CC2)cn1 [Example 164] | 7.53 nM
12 | CCCCOc1ccc(N2CCN(S(=O)(=O)C3(C(=O)NO)CCN(c4ccsc4)CC3)CC2)cc1 [Example 223] | 66.1 nM
13 | COCCN1CCC(C(=O)NO)(S(=O)(=O)N2CCN(c3ccccn3)CC2)CC1 [Example 176] | 9.63 nM
14 | CCCCOc1ccc(N2CCN(S(=O)(=O)C3(C(=O)NO)CCN(C(=O)N4CCCC4)CC3)CC2)cc1 [Example 231] | 0.71 nM
15 | CCCc1cnc(N2CCN(S(=O)(=O)C3(C(=O)NO)CCN(CCOC)CC3)CC2)nc1 [Example 178] | 2.23 nM
16 | CCCCc1ccc(N2CCN(S(=O)(=O)C(C)C(=O)NO)CC2)nc1 (centres unmarked) [Example 217] | 0.45 nM
17 | O=C(NO)C1(S(=O)(=O)N2CCN(c3ccc(OC(F)(F)C(F)F)cc3)CC2)CCSCC1 [Example 62] | 1.5 nM
18 | CCCCOc1ccc(N2CCN(S(=O)(=O)C3(C(=O)NO)CCN(c4ccc(C#N)cc4)CC3)CC2)cc1 [Example 225] | 28.1 nM
19 | CCCCOc1ccc(N2CCN(S(=O)(=O)C3(C(=O)NO)CCN(C(=O)c4cccs4)CC3)CC2)cc1 [Example 160] | 1.79 nM
20 | CCCCOc1ccc(N2CCN(S(=O)(=O)C3(C(=O)NO)CCS(=O)(=O)CC3)CC2)cc1 [Example 222] | 21.5 nM
21 | CCCCOc1ccc(N2CCN(S(=O)(=O)C3(C(=O)NO)CCN(CCN(CC)CC)CC3)CC2)cc1 [Example 235] | 0.9 nM
22 | CCCCOc1ccc(N2CCN(S(=O)(=O)C3(C(=O)NO)CCN(Cc4ncc[nH]4)CC3)CC2)cc1 [Example 247] | 0.718 nM

Row | SMILES | Ki
23 | CCCCc1ccc(N2CCN(S(=O)(=O)C3(C(=O)NO)CCN(CCOC)CC3)CC2)cc1F [Example 173] | 0.149 nM
24 | O=C(NO)C1(S(=O)(=O)N2CCN(c3ccc(OCC(F)(F)C(F)(F)F)cc3)CC2)CCOCC1 [Example 212] | 2.91 nM
25 | CCCCOc1ccc(N2CCN(S(=O)(=O)C3(C(=O)NO)CCN(C(=O)N(C(C)C)C(C)C)CC3)CC2)cc1 [Example 244] | 3.9 nM
26 | O=C(NO)C1(S(=O)(=O)N2CCN(c3cnc(CCCC(F)(F)F)cn3)CC2)CCOCC1 [Example 209] | 157 nM
27 | CCCCOc1ccc(N2CCN(S(=O)(=O)C3(C(=O)NO)CCN(c4ncccn4)CC3)CC2)cc1 [Example 159] | 1.93 nM
28 | CCCCOc1ccc(N2CCN(S(=O)(=O)C3(C(=O)NO)CCN(C(=O)N4CCCCC4)CC3)CC2)cc1 [Example 243] | 0.7 nM
29 | CCCCOc1ccc(N2CCN(S(=O)(=O)C3(C(=O)NO)CCN(c4ccc(OC)cc4)CC3)CC2)cc1 [Example 249] | 11.3 nM
30 | CCCCOc1ccc(N2CCN(S(=O)(=O)C3(C(=O)NO)CCN(C(=O)N4CCN(C)CC4)CC3)CC2)cc1 [Example 230] | 0.87 nM
31 | CC(C)Cc1ccc(N2CCN(S(=O)(=O)C3(C(=O)NO)CCOCC3)CC2)c(F)c1 [Example 213] | 82.4 nM
32 | CCCCOc1ccc(N2CCN(S(=O)(=O)C3(C(=O)NO)CCN(CCCC(F)(F)F)CC3)CC2)cc1 [Example 238] | 2.49 nM
33 | CCCCOc1ccc(N2CCN(S(=O)(=O)C3(C(=O)NO)CCN(Cc4nccn4C)CC3)CC2)cc1 [Example 245] | 0.588 nM
34 | CCCCc1nnc(N2CCN(S(=O)(=O)C3(C(=O)NO)CCOCC3)CC2)s1 [Example 214] | 220 nM
35 | CCCCOc1ccc(N2CCN(S(=O)(=O)C3(C(=O)NO)CCN(c4ccc(N(C)C)cc4)CC3)CC2)cc1 [Example 241] | 4.74 nM
36 | CCCCOc1ccc(N2CCN(S(=O)(=O)C3(C(=O)NO)CCN(c4nccs4)CC3)CC2)cc1 [Example 157] | 4.28 nM
37 | CCCCOc1ccc(N2CCN(S(=O)(=O)C3(C(=O)NO)CCSCC3)CC2)cc1 [Example 232] | 2.3 nM
38 | CCCCOc1ccc(N2CCN(S(=O)(=O)C3(C(=O)NO)CCN(CCN4CCOCC4)CC3)CC2)cc1 [Example 233] | 0.972 nM
39 | CCCCCc1ccc(N2CCN(S(=O)(=O)C3(C(=O)NO)CCN(S(N)(=O)=O)CC3)CC2)cc1 [Example 205] | 248 nM
40 | Cc1ccc(N2CCC(C(=O)NO)(S(=O)(=O)N3CCN(c4ccc(OCCCC(F)(F)F)cc4)CC3)CC2)cc1 [Example 161] | 134 nM
41 | COCCN1CCC(C(=O)NO)(S(=O)(=O)N2CCN(c3ccc(OCC(C)C)c(F)c3)CC2)CC1 [Example 166] | 2.22 nM
42 | CCCCOc1ccc(N2CCN(S(=O)(=O)C3(C(=O)NO)CCN(c4ccc(OC(F)(F)C(F)F)cc4)CC3)CC2)cc1 [Example 65] | 128 nM
43 | CCCCCc1cnc(N2CCN(S(=O)(=O)C3(C(=O)NO)CCOCC3)CC2)cn1 [Example 219] | 0.46 nM
44 | O=C(NO)C1(S(=O)(=O)N2CCN(c3ccc(COCC(F)(F)C(F)(F)F)cc3)CC2)CCOCC1 [Example 70] | 49.7 nM

Row | SMILES | Ki
45 | CCCCCc1ccc(N2CCN(S(=O)(=O)C3(C(=O)NO)CCN(C(=O)CC)CC3)CC2)cc1 [Example 206] | 0.62 nM
46 | CCCCOc1ccc(N2CCN(S(=O)(=O)C3(C(=O)NO)CCN(C(=O)N(CC)CC)CC3)CC2)cc1 [Example 242] | 1.14 nM
47 | Cc1ccc(-c2ccc(N3CCN(S(=O)(=O)C4(C(=O)NO)CCOCC4)CC3)cc2)cc1 [Example 207] | 12.3 nM
48 | CCCNC(=O)c1ccc(N2CCN(S(=O)(=O)C3(C(=O)NO)CCN(CCOC)CC3)CC2)cc1 [Example 175] | 440 nM
49 | CCCCCc1ccc(N2CCN(S(=O)(=O)C3(C(=O)NO)CCOCC3)CC2)nc1 [Example 167] | 0.2 nM
50 | CCCCCc1ccc(N2CCN(S(=O)(=O)C3(C(=O)NO)CCN(S(=O)(=O)N(C)C)CC3)CC2)cc1 [Example 236] | 2.61 nM
51 | COc1ccc(-c2ccc(N3CCN(S(=O)(=O)C4(C(=O)NO)CCOCC4)CC3)nc2)cc1 [Example 61] | 12.3 nM
52 | CCOCCSc1ccc(N2CCN(S(=O)(=O)C3(C(=O)NO)CCOCC3)CC2)cc1 [Example 234] | 33.6 nM
53 | O=C(NO)C1(S(=O)(=O)N2CCN(c3ccc4c(c3)OC(F)(F)C(F)(F)O4)CC2)CCOCC1 [Example 67] | 1380 nM
54 | CCCc1nnc(N2CCN(S(=O)(=O)C3(C(=O)NO)CCOCC3)CC2)s1 [Example 216] | 596 nM
55 | CCCCOc1ccc(N2CCN(S(=O)(=O)C3(C(=O)NO)CCN(c4ccc(OC)c(OC)c4)CC3)CC2)cc1 [Example 229] | 4.64 nM
56 | O=C(NO)C1(S(=O)(=O)N2CCN(c3ccc(-c4ccc(F)cc4)cc3)CC2)CCOCC1 [Example 208] | 0.7 nM
57 | CCCCOc1ccc(N2CCN(S(=O)(=O)C3(C(=O)NO)CCN(c4cccc(C)c4)CC3)CC2)cc1 [Example 226] | 19 nM
58 | CCCCC(=O)c1ccc(N2CCN(S(=O)(=O)C3(C(=O)NO)CCN(CCOC)CC3)CC2)cc1 [Example 177] | 18.6 nM
59 | COCCSc1ccc(N2CCN(S(=O)(=O)C3(C(=O)NO)CCOCC3)CC2)cc1 [Example 227] | 17.2 nM
60 | CCCCCc1ccc(N2CCN(S(=O)(=O)C3(C(=O)NO)CCN(C(C)=O)CC3)CC2)cc1 [Example 239] | 0.46 nM
61 | CCCCOc1ccc(N2CCN(S(=O)(=O)C3(C(=O)NO)CCN(Cc4ccc(C)o4)CC3)CC2)cc1 [Example 246] | 1.74 nM
62 | COCCN1CCC(C(=O)NO)(S(=O)(=O)N2CCN(c3ccc(C(C)=O)cc3)CC2)CC1 [Example 174] | 28.9 nM
63 | CCCCOc1ccc(N2CCN(S(=O)(=O)C3(C(=O)NO)CC3)CC2)cc1 [Example 63] | 7.71 nM
64 | CCCc1ccc(N2CCN(S(=O)(=O)C3(C(=O)NO)CCN(c4ccc(C)cc4)CC3)CC2)cc1 [Example 171] | 6.91 nM
65 | CCCCOc1c(F)cc(N2CCN(S(=O)(=O)C3(C(=O)NO)CCN(CCOC)CC3)CC2)cc1F [Example 165] | 14.7 nM
